Test results as given in US20230255906A1, “Targeting Serpin B9 in Cancer” (The Brigham and Women`s Hospital, Inc., priority 2020, published 2023).

test system: B16 melanoma cells; assay: Caspase-3 activity assay (EnzChek Caspase-3 Assay Kit), caspase-3 induction in tumor cells; format: cell-based, mouse; conditions: not given; further: test concentration or dose not given here
Text: The EnzChek® Caspase-3 Assay Kit was used to detect apoptosis by assaying for increases in caspase-3 activities. The basis for the assay was rhodamine 110 bis-(N-CBZ-L-aspartyl-L-glutamyl-L-valyl-L-aspartic acid amide) (Z-DEVD-R110). This substrate is a bisamide derivative of rhodamine 110 (R110) containing DEVD peptides covalently linked to each of R110's amino groups, thereby suppressing the dye's visible absorption and its fluorescence. Upon enzymatic cleavage, the nonfluorescent bisamide substrate is converted in a two-step process first to a fluorescent monoamide and then to an even more fluorescent R110.
At least 1×10^6 cells of the lysate were used for each reaction. B16 cells were treated with compounds to induce apoptosis. A negative control was prepared by incubating cells in the absence of compounds. The cells were incubated with compounds for 24 hrs and washed in PBS. Each cell sample or control was resuspended in 50 μL of the 1×cell lysis buffer. Cells were lysed by incubating on ice for 30 minutes, and the lysed cells were centrifuged to pellet the cellular debris. 50 μL of the supernatant was transferred from each sample to individual microplate wells. 50 μL of the 1× cell lysis buffer was used as a no-enzyme control to determine the background fluorescence of the substrate. 50 μL of the 2×substrate working solution was added to each sample and control. The microplate was covered, and the samples were incubated at room temperature for approximately 30 minutes. The fluorescence was measured by a fluorescence microplate reader (excitation/emission ˜496/520 nm) using excitation and emission filters.
The ability of this small molecule inhibitor to inhibit intracellular Sb9 was then evaluated. As a marker for cell penetration, the induction of caspase-3 activity in B16 melanoma cells as a surrogate marker for increased GrB activity was measured.
The induction of caspase-3 activity in B16 melanoma cells as a surrogate marker for increased GrB activity was also measured for other small molecules (compounds of Formulas (V) and (VI) as described herein).

| Structure (SMILES) | Ratio of caspase-3 activity to Formula (III) |
| --- | --- |
| COc1cccc(-c2nc3ccc(C(=O)NCc4cnc(C)cn4)cc3o2)c1 [2-(3-methoxyphenyl)-N-[(5-methylpyrazin-2-yl)methyl]-1,3-benzoxazole-6-carboxamide] | 0.1387 |
| COc1cccc(-c2nc3ccc(C(=O)N(C)CCC4CCCCO4)cc3o2)c1 (stereo not shown) [2-(3-methoxyphenyl)-N-methyl-N-[2-(tetrahydro-2H-pyran-2-yl)ethyl]-1,3-benzoxazole-6-carboxamide] | 0.1405 |
| COc1cccc(-c2nc3ccc(C(=O)N(C)Cc4nnc(C)o4)cc3o2)c1 [2-(3-methoxyphenyl)-N-methyl-N-[(5-methyl-1,3,4-oxadiazol-2-yl)methyl]-1,3-benzoxazole-6-carboxamide] | 0.7091 |
| COc1cccc(-c2nc3ccc(C(=O)N(C)Cc4cc(C)on4)cc3o2)c1 [2-(3-methoxyphenyl)-N-methyl-N-[(5-methylisoxazol-3-yl)methyl]-1,3-benzoxazole-6-carboxamide] | 0.2402 |
| CCCc1cc(CN(C)C(=O)c2ccc3nc(-c4cccc(OC)c4)oc3c2)n[nH]1 [2-(3-methoxyphenyl)-N-methyl-N-[(5-propyl-1H-pyrazol-3-yl)methyl]-1,3-benzoxazole-6-carboxamide] | 0.1531 |
| COc1cccc(-c2nc3ccc(C(=O)N4CCN(CCC(N)=O)CC4)cc3o2)c1 [3-(4-{[2-(3-methoxyphenyl)-1,3-benzoxazol-6-yl]carbonyl}-1-piperazinyl)propanamide] | 1.077 |
| CC(C)NC(=O)CCNC(=O)c1ccc2nc(-c3ccccc3)oc2c1 [3-[(2-phenyl-1,3-benzoxazol-6-yl)formamido]-N-(propan-2-yl)propanamide] | 1.371 |
| O=C1CN(C(=O)c2ccc3oc(-c4ccc(C(F)(F)F)cc4)nc3c2)CCN1 [4-({2-[4-(trifluoromethyl)phenyl]-1,3-benzoxazol-5-yl}carbonyl)-2-piperazinone] | 1.698 |

same assay, conditions: relative to compound of Formula (III)

| Structure (SMILES) | Caspase-3 induction, Normalized to Formula (III) (%) |
| --- | --- |
| COCCCNC(=O)c1cccc2oc(N(C)C)nc12 [2-(dimethylamino)-N-(3-methoxypropyl)-1,3-benzoxazole-4-carboxamide] | −31.049% |
| COCCCNC(=O)c1cccc2nc(N(C)C)oc12 [2-(dimethylamino)-N-(3-methoxypropyl)-1,3-benzoxazole-7-carboxamide] | −39.581% |
| CCN(C)C(=O)c1cccc2oc(N(C)C)nc12 [2-(dimethylamino)-N-ethyl-N-methyl-1,3-benzoxazole-4-carboxamide] | −25.6782% |
| CCN(C)C(=O)c1cccc2nc(N(C)C)oc12 [2-(dimethylamino)-N-ethyl-N-methyl-1,3-benzoxazole-7-carboxamide] | −30.9946% |
| COc1cc(Br)c(C(=O)NCC(C)C)cc1OC [2-bromo-4,5-dimethoxy-N-(2-methylpropyl)benzamide] | −58.9646% |
| COCCCNC(=O)c1cc(OC)c(OC)cc1Br [2-bromo-4,5-dimethoxy-N-(3-methoxypropyl)benzamide] | −85.9622% |
| COc1cc(Br)c(C(=O)NCC2CCOCC2)cc1OC [2-bromo-4,5-dimethoxy-N-[(oxan-4-yl)methyl]benzamide] | −43.6422% |
| COc1cc(Br)c(C(=O)NCC2CCOC2)cc1OC (stereo not shown) [2-bromo-4,5-dimethoxy-N-[(oxolan-3-yl)methyl]benzamide] | −2.142% |
| COc1cc(Br)c(C(=O)NCCN(C)C)cc1OC [2-bromo-N-[2-(dimethylamino)ethyl]-4,5-dimethoxybenzamide] | −70.1327% |
| COc1cc(Br)c(C(=O)NC2CCCC2)cc1OC [2-bromo-N-cyclopentyl-4,5-dimethoxybenzamide] | −49.8913% |
| CCN(C)C(=O)c1cc(OC)c(OC)cc1Br [2-bromo-N-ethyl-4,5-dimethoxy-N-methylbenzamide] | −74.0106% |
| O=C(c1ccc2nc(C3CCCCC3)oc2c1)N1CCCC1 [2-cyclohexyl-6-(pyrrolidine-1-carbonyl)-1,3-benzoxazole] | −29.7019% |
| COCCCNC(=O)c1ccc2nc(C3CCCCC3)oc2c1 [2-cyclohexyl-N-(3-methoxypropyl)-1,3-benzoxazole-6-carboxamide] | −42.1813% |
| O=C(NC1CCCC1)c1ccc2nc(C3CCCCC3)oc2c1 [2-cyclohexyl-N-cyclopentyl-1,3-benzoxazole-6-carboxamide] | 26.2507% |
| CCN(C)C(=O)c1ccc2nc(C3CCCCC3)oc2c1 [2-cyclohexyl-N-ethyl-N-methyl-1,3-benzoxazole-6-carboxamide] | 1.1915% |
| O=C(c1ccc2nc(C3CC3)oc2c1)N1CCCC1 [2-cyclopropyl-6-(pyrrolidine-1-carbonyl)-1,3-benzoxazole] | −27.4144% |
| COCCCNC(=O)c1ccc2nc(C3CC3)oc2c1 [2-cyclopropyl-N-(3-methoxypropyl)-1,3-benzoxazole-6-carboxamide] | −4.759% |
| CCN(C)C(=O)c1ccc2nc(C3CC3)oc2c1 [2-cyclopropyl-N-ethyl-N-methyl-1,3-benzoxazole-6-carboxamide] | 33.9690% |
| CCOc1ccc(C(=O)N2CCCC2)cc1O [2-ethoxy-5-(pyrrolidine-1-carbonyl)phenol] | −21.427% |
| COc1cc(C(=O)NCC2CCOCC2)ccc1OCCC(C)C [3-methoxy-4-(3-methylbutoxy)-N-[(oxan-4-yl)methyl]benzamide] | −31.8318% |
| COc1cc(C(=O)NCC2CCOCC2)ccc1OC(C)C [3-methoxy-N-[(oxan-4-yl)methyl]-4-(propan-2-yloxy)benzamide] | −66.2788% |
| COc1cc(C(=O)NCC2CCOC2)ccc1OC(C)C (stereo not shown) [3-methoxy-N-[(oxolan-3-yl)methyl]-4-(propan-2-yloxy)benzamide] | −2.673% |
| Cc1cc(O)c(O)cc1C(=O)NCC(C)C [4,5-dihydroxy-2-methyl-N-(2-methylpropyl)benzamide] | −27.9096% |
| COCCCNC(=O)c1cc(O)c(O)cc1C [4,5-dihydroxy-N-(3-methoxypropyl)-2-methylbenzamide] | −55.7377% |
| CCOc1ccc(C(=O)NCC(C)C)cc1O [4-ethoxy-3-hydroxy-N-(2-methylpropyl)benzamide] | −3.559% |
| CCOc1ccc(C(=O)NCCCOC)cc1O [4-ethoxy-3-hydroxy-N-(3-methoxypropyl)benzamide] | −35.6816% |
| CCOc1ccc(C(=O)NCC2CCOCC2)cc1O [4-ethoxy-3-hydroxy-N-[(oxan-4-yl)methyl]benzamide] | −30.8469% |
| CCOc1ccc(C(=O)NCC2CCOC2)cc1O (stereo not shown) [4-ethoxy-3-hydroxy-N-[(oxolan-3-yl)methyl]benzamide] | −24.9053% |
| CCOc1ccc(C(=O)N(C)CC)cc1O [4-ethoxy-N-ethyl-3-hydroxy-N-methylbenzamide] | −69.889% |
